Assay results: patent publication US20050009886A1, “1,4-Dihydropyridine derivative with a guaiacoxypropanolamine and/or phenoxypropanolamine moiety” (priority 1998, published 2005)

How the values were obtained:
[1] = Heart rate and blood pressure in living rat; assay type: in vivo, Wistar rats; conditions: 1 mg/kg via femoral vein, anaesthetized rat
From the text: Male Wistar rats, weighing 200˜300 g were abdominal anaesthetized with pentobarbital sodium. Tracheal was cannulated to maintain normal respiration. Polyethylene tube was inserted into the left femoral vein to facilitate drug administration. A 3-way stopcock was used, with one end connected to a syringe for drug injection, while the other end was connected to the syringe filled with physiological saline. The latter was used to prevent residual drugs in the polyethylene tube after injection, which would affect experimental accuracy.
The right femoral artery was also inserted with polyethylene, and a 3-way stopcock was used too, where one end was connected to heparin solution to prevent embolism. The other end was connected to a Disposable Diaphragm Dome, TA1019, and linked to a transducer. Through an amplifier, a recorder recorded the overall and average arterial pressure; heart rate to evaluate the effect of drug on blood pressure and heart rate.

[2] = target: T1, β-adrenoreceptor (β1) (Rattus norvegicus, UniProt P18090); experiment: Isolated right atrium, L-isoproterenol-induced heart rate increase (pA2); parameters: species or system Wistar rat; conditions: for β1/β2: from pA2 difference right atrium vs tracheal; for β1 Right Atrium (Slope): slope of Schild regression; for β1 Value of pA2 Right Atrium: vs L-isoproterenol, Schild plot
T1 construct: The right and left atria were then separated; from tissue; host or cells: isolated rat right atrium (spontaneously beating) and left atrium (electrically paced)
T1 sequence (P18090 whole entry): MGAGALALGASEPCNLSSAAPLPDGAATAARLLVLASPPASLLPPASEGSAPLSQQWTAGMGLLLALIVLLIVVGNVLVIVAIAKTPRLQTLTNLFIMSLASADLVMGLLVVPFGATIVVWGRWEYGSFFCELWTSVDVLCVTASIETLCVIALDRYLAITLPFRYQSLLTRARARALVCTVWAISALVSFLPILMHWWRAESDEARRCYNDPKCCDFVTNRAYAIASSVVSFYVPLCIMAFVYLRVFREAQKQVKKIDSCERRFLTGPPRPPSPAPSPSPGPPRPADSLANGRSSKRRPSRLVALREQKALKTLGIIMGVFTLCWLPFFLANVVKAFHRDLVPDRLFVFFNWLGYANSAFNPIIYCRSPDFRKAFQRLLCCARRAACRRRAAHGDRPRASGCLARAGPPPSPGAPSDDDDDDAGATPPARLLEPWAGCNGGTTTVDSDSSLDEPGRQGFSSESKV
Description: The right and left atria were then separated. The spontaneously-beating right atria was clipped on both end by heart shaped clips, where one end was fixed at the bottom of 10 ml of tissue bath made of physiological saline solution, and temperature maintained at 37° C. The other end of the atria was connected to a force transducer, and isometric contractions and beating rate of the right atria were recorded by COULBOURN AT-High-Speed VideoFigure. After the samples were given 250 mg of contractions and reach equilibrium the following experiments were carried out: • (a) β-adrenoceptor blocking action
Cumulative administration interval was when the previous concentration reached its greatest effect, the next concentration would be immediately given.
The equation is as follows: pA2=−Log KB Log(DRADJ−1)=nlog[B]−LogKB [formula]
[B] Test compound concentration in moles • KB: equilibrium dissociation constant • n: value of slope DR: test EC50 divided by control EC50 • CF: EC50 of second or third control groups divided by EC50 of first control group (c) Effect of Compound on the Increase of Spontaneous Beating in Right Atrium Caused by CaCl2

[3] = target: T1, β-adrenoreceptor (β1); experiment: Isolated left atrium, L-isoproterenol-induced contractility increase (pA2); parameters: species or system Wistar rat; conditions: for β1 Left Atrium (Slope): slope of Schild regression; for β1 Value of pA2 Left Atrium: vs L-isoproterenol, electrically stimulated
Description: The inspontaneously-beating left atrial tissue was obtained from rat's isolated right atrial tissue experiments. […] The contraction rate was 1 Hz and the resting tension 0.5 gm. After 60 minutes of equilibration, the following experiments were performed:
(a) Completion of cumulative concentration-response curve: similar to experimental method on isolated right atrium;
(b) Calculation of pA2 value: similar to calculation method on isolated right atrium.

[4] = target: T2, β2 (Cavia porcellus, UniProt Q8K4Z4); experiment: Guinea pig's isolated tracheal, L-isoproterenol relaxation of carbachol contraction (pA2); conditions: for β2 Tracheal (slope): slope of Schild regression; for β2 Value of pA2 Tracheal: vs L-isoproterenol, carbachol 10^−6 M contraction
T2 construct: a portion of tracheal approximately 4 cm long was removed; from tissue; host or cells: isolated trachea of reserpine-pretreated guinea pigs
T2 sequence (Q8K4Z4 whole entry): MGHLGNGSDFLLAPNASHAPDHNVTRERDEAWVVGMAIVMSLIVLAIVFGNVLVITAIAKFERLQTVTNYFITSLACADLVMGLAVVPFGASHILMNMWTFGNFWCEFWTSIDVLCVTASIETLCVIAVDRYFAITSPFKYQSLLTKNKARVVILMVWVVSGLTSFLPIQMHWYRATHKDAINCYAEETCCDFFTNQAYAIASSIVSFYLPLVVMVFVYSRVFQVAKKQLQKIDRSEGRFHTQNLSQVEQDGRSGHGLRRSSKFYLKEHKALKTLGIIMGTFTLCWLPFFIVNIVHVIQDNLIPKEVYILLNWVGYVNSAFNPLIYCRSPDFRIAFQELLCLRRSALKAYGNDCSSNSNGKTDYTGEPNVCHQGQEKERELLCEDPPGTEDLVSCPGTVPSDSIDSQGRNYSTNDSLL
Description: Guinea pigs of weight between 300˜500 gm were used. […] After the guinea pigs were sacrificed, a slit was made along the neck, and a portion of tracheal approximately 4 cm long was removed. […] The two ends of the tracheal were clamped with frog-heart shaped clamps, one end was fixed at the bottom of tissue bath filled with 20 ml of Kreb's solution, maintained at 37° C., while the other end was connected to a force transducer. Through a COULBOURN AT-High-Speed Videograph, long isometric contractions were recorded. After the sample was given 1.5 gm of tension and equilibrated, the following experiments were performed:
Then the tracheal was repeatedly washed with Kreb's solution for 20 minutes and 10−6 M of carbochol was added to cause contraction in the guinea pig's tracheal. […] This is the test group.
(b) Calculation of pA2: similar to the calculation method for isolated right atrium experiment.

[5] = tested on: thoracic aorta; experiment: Isolated thoracic aorta contraction caused by 75 mM KCl; parameters: species or system Wistar rat; conditions: 10^−8M; 75 mM KCl contraction
Description: After sacrificing Wistar rat of weight between 300-500 gm, the thoracic aorta was immediately removed and placed in cold Kreb's solution. The fatty connecting tissue surrounding the vessel wall was removed and the thoracic aorta was cut into rings of length 5 mm. The two ends of each ring was pieced and fixed with “Z” shaped platinum wires. […] The sample was given 1 gm of tension and equilibrated for 60 minutes before the following experiments were carried out:
After thoracic aorta had reached equilibrium in the tissue trough, the normal Kreb's solution in the trough was replaced with 75 mM KCl solution to induce vasoconstriction. When the results had been recorded for at least 35 minutes, the aorta was repeatedly rinsed with normal Kreb's solution. After the aorta had re-equilibrated and at least rested for 60 minutes, different concentrations (10^−8, 10^−7, 10^−6, and 10^−5M) of compound 1 were separately added. 30 minutes later, 75 mM KCl was added again to induce vasoconstriction. This method was used to compare the differences in contraction induced by 75 mM KCl on thoracic aorta pre-treated and non-treated with compound 1.
0.1 μM of BayK8644 was first added into the tissue trough. 10 minutes later, 75 mM of concentrated Potassium solution was added to induce thoracic aorta contraction. When vasoconstriction had reached stability, different concentrations of (10^−8, 10^−7, 10^−6, and 10^−5M) compound 1 were separately added. The effects of aorta contraction induced by concentrated Potassium solution were observed.

[6] = tested on: Calcium; experiment: Calcium antagonism (pKCa^−1, Table 2)
[7] = tested on: isolated atria; experiment: Direct effect (intrinsic sympathomimetic activity) on reserpine pretreated isolated atria; parameters: species or system Wistar rat; conditions: for direct effect on right atrium beating rate and left atrium isometric contractions: cumulative administration, reserpine pretreated
Description: Wistar rats of weight between 200˜300 gm were used. 18˜24 hours before the experiment, 5 mg/kg of reserpine was injected via abdominal cavity to remove all endogenous catecholamines. Prior experiment, Wistar rats were sacrificed, the heart was immediately removed and placed in Kreb's solution aerated with air mixture and maintained at room temperature. The right and left atria were carefully separated.

Row | SMILES | β1 Left Atrium (Slope) [3] | β1 Value of pA2 Left Atrium [3] | β2 Tracheal (slope) [4] | β2 Value of pA2 Tracheal [4] | Lowering of Blood Pressure [1] | Reduction of Heart Rate [1] | Ratio of β1 and Calcium Antagonism [2] | β1/β2 [2] | β1 Right Atrium (Slope) [2] | β1 Value of pA2 Right Atrium [2] | Aorta Relaxation [5] | Calcium Antagonism PKCa^−1 [6] | direct effect on right atrium beating rate and left atrium isometric contractions [7] | atrial blocking effect ([7]; 3×10−4M)
1 | CC(C)NC[C@H](O)c1ccc(O)c(O)c1 [L-isoproterenol] |  |  |  |  |  |  |  |  |  |  |  |  | dose-dependently increase the right atrium beating rate and left atrium isometric contractions | 
2 | CC(C)NCC(O)COc1cccc2ccccc12 (stereo not drawn) [Propranolol] |  |  |  |  |  |  |  |  |  |  |  |  | could retard the beating rate and isometric contractions | 
3 | CCOC(=O)C1=C(C)NC(C)=C(C(=O)OCC)C1c1cc(Cl)ccc1OCC(O)CNCCOc1ccccc1OC (stereo not drawn) [Compound 6] | (0.91 ± 0.09) | 7.01 ± 0.28 | (0.90 ± 0.19) | 7.31 ± 0.19 | 80 ± 3 mmHg | 35 ± 5 beats/min | 0.11 | 1.29 | (0.88 ± 0.12) | 7.41 ± 0.34 | 45 ± 4% | 8.01 ± 0.45 |  | 
4 | CC(C)NCC(O)COc1ccc(CC(N)=O)cc1 (stereo not drawn) [atenolol] |  |  |  |  |  |  |  |  |  |  |  |  |  | almost does not have atrial blocking effect
5 | CCOC(=O)C1=C(C)NC(C)=C(C(=O)OCC)C1c1ccc(OCC(O)CNCCOc2ccccc2OC)c(OC)c1 (stereo not drawn) [Compound 3, 4-{{N-{4-[2-hydroxy-3-(2-methoxy-1-oxyethyl-aminobenzene)propoxy]-3-methoxy)phenyl}}-2,6-dimethyl-3,5-dicarboethoxy-1,4-dihydropyridine] | (0.89 ± 0.03) | 6.97 ± 0.12 | (0.92 ± 0.23) | 7.31 ± 0.23 | 78 ± 5 mmHg | 37 ± 5 beats/min | 0.08 | 1.26 | (0.92 ± 0.27) | 7.47 ± 0.38 | 41 ± 2% | 7.96 ± 0.27 |  | 

Further lines, with some results ahead:

Row | β1 Left Atrium (Slope) [3] | β1 Value of pA2 Left Atrium [3] | β2 Tracheal (slope) [4] | β2 Value of pA2 Tracheal [4] | SMILES | Lowering of Blood Pressure [1] | Reduction of Heart Rate [1] | Ratio of β1 and Calcium Antagonism [2] | β1/β2 [2] | β1 Right Atrium (Slope) [2] | β1 Value of pA2 Right Atrium [2] | Aorta Relaxation [5] | Calcium Antagonism PKCa^−1 [6] | direct effect on right atrium beating rate and left atrium isometric contractions [7] | atrial blocking effect ([7]; 3×10−4M)
6 | (0.92 ± 0.12) | 6.90 ± 0.35 | (0.87 ± 0.18) | 7.27 ± 0.32 | CCOC(=O)C1=C(C)NC(C)=C(C(=O)OCC)C1c1cc(Cl)ccc1OCC(O)CNC(C)(C)C (stereo not drawn) [Compound 4] | 76 ± 6 mmHg | 33 ± 3 beats/min | 0.08 | 1.31 | (0.83 ± 0.12) | 7.38 ± 0.12 | 35 ± 5% | 7.94 ± 0.56 |  | 
7 | (0.93 ± 0.19) | 6.91 ± 0.09 | (0.91 ± 0.21) | 7.24 ± 0.12 | CCCCNCC(O)COc1ccc(Cl)cc1C1C(C(=O)OCC)=C(C)NC(C)=C1C(=O)OCC (stereo not drawn) [Compound 5] | 74 ± 4 mmHg | 32 ± 4 beats/min | 0.10 | 1.33 | (0.91 ± 0.23) | 7.37 ± 0.27 | 33 ± 2% | 7.89 ± 0.34 |  | 
8 | (0.91 ± 0.21) | 6.93 ± 0.34 | (0.88 ± 0.12) | 7.20 ± 0.45 | COC(=O)C1=C(C)NC(C)=C(C(=O)OC)C1c1ccc(OCC(O)CNCCOc2ccccc2OC)c(OC)c1 (stereo not drawn) [Compound 2, 4-{{N-{4-[2-hydroxy-3-(2-methoxy-1-oxyethyl-aminobenzene)propoxy]-3-methoxy}phenyl}}-2,6-dimethyl-3,5-dicarbo-methoxy-1,4-dihydropyridine] | 75 ± 2 mmHg | 35 ± 4 beats/min | 0.09 | 1.28 | (0.88 ± 0.09) | 7.36 ± 0.65 | 40 ± 4% | 7.91 ± 0.35 |  | 
9 | (0.91 ± 0.18) | 7.12 ± 0.09 | (0.88 ± 0.23) | 7.33 ± 0.24 | CCOC(=O)C1=C(C)NC(C)=C(C(=O)OCC)C1c1cc([N+](=O)[O-])ccc1OCC(O)CNCCOc1ccccc1OC (stereo not drawn) [Compound 9] | 85 ± 6 mmHg | 40 ± 5 beats/min | 0.07 | 1.30 | (0.88 ± 0.09) | 7.78 ± 0.12 | 47 ± 2% | 8.12 ± 0.32 |  | 
10 | (0.89 ± 0.12) | 7.03 ± 0.18 | (0.92 ± 0.17) | 7.27 ± 0.19 | CCOC(=O)C1=C(C)NC(C)=C(C(=O)OCC)C1c1cc([N+](=O)[O-])ccc1OCC(O)CNC(C)(C)C (stereo not drawn) [Compound 8] | 80 ± 3 mmHg | 40 ± 4 beats/min | 0.08 | 1.29 | (0.83 ± 0.21) | 7.89 ± 0.23 | 43 ± 3% | 8.09 ± 0.13 |  | 
11 | (0.88 ± 0.27) | 6.97 ± 0.29 | (0.89 ± 0.21) | 7.28 ± 0.21 | CCOC(=O)C1=C(C)NC(C)=C(C(=O)OCC)C1c1ccc(OCC(O)CNCCOc2ccccc2OC)c(Cl)c1 (stereo not drawn) [Compound 7, 4-{{N-{4-[2-hydroxy-3-(2-methoxy-1-oxyethyl-aminobenzene)propoxy]-3-choloro}phenyl} }-2,6-dimethyl-3,5-dicarbo-ethoxy-1,4-dihydropyridine] | 82 ± 6 mmHg | 40 ± 2 beats/min | 0.07 | 1.34 | (0.91 ± 0.08) | 7.77 ± 0.34 | 45 ± 5% | 8.06 ± 0.27 |  | 
